Test system: Plasmodium falciparum
Assay: GSK_TCMDC: Inhibition of Plasmodium falciparum 3D7 in whole erythrocytes, using parasite LDH activity as an index of growth.
Assay type: functional, organism-based
Conditions: Plasmodium falciparum, 3D7

Compound | XC50 [nM]
c1cc(CNCc2ccc3c(c2)OCO3)cc(-c2cccc(CNc3ccc4ncccc4c3)c2)c1 | 760
O=C(CCCC(=O)Nc1ccc(C2=NCCN2)cc1)Nc1ccc(C2=NCCN2)cc1 | 106
Oc1cccc(-c2nc(-c3ccccc3)c(-c3ccc4oc5ccc(-c6[nH]c(-c7cccc(O)c7)nc6-c6ccccc6)cc5c4c3)[nH]2)c1 | 795
Cc1[nH]c(C)c(-c2ccc(-c3ccc(C(F)(F)F)cc3C(F)(F)F)nc2)c(=O)c1Br | 187
Fc1ccc2[nH]c(-c3ccc(-c4cccc(CN5CCC(CCN6CCCCC6)CC5)c4)cc3)nc2c1 | 136
CCc1cn2c3c(cc(C(=O)N[C@@H](Cc4ccccc4)[C@H](O)CNC4CCCCC4)cc13)N(C)S(=O)(=O)C2 | 87.1
Cc1cccc(NC(=O)c2ccc(C(=O)NC3CCN(CC4CCCCC4)C3)cc2)c1 (stereo not given) | 923
O=C(Nc1ccc2ccccc2c1)N1CCC(NCc2cccc([N+](=O)[O-])c2)CC1 | 855
OC(CNCCCc1ccccc1)c1cc(OCc2ccccc2)cc(OCc2ccccc2)c1 (stereo not given) | 851
O=C(/C=C/c1ccc(Cl)c(Cl)c1)NCCCCCN1CCCC(C(=O)Nc2cccc(Cl)c2)C1 (stereo not given) | 895
Cn1cnc2c(Nc3ccncc3)nc(-c3ccc(OC(F)(F)F)cc3)nc21 | 1100
Cc1ccc(-c2nnc(Nc3ccc(C(=O)N4CCCCC4)cc3)c3ccccc23)cc1S(=O)(=O)NCC1CCCO1 (stereo not given) | 709
CC(C)(C)Oc1ccc(NC(=O)c2ccccc2O)cc1 | 1010
CN1CCC(NCc2cccc(-c3cccc(S(=O)(=O)NCc4ccccc4)c3)c2)CC1 | 749
Nc1ccc(-c2nc3cc(-c4ccc5[nH]c(-c6ccc(N)cc6)nc5c4)ccc3[nH]2)cc1 | 129
CC(CN(C)C)C(=O)Nc1ccc(-c2ccc(-c3nc4cc(C(F)(F)F)ccc4[nH]3)cc2)cc1 (stereo not given) | 747
O=C(Nc1ccc(N2CCN(Cc3ccccc3Cl)CC2)cc1)c1ccc([N+](=O)[O-])o1 | 975
CC1CN(Cc2csc(Nc3ccccc3)n2)CC(C)O1 (stereo not given) | 1020
CC1CC1C(=O)NC1CCN(CC2(c3ccccc3)CCCCC2)CC1 (stereo not given) | 637
CC(C)Oc1ccc2c(c1)OC(c1ccccc1)(C(F)(F)F)NC2=O (stereo not given) | 136
O=C(NCc1cccc(C(F)(F)F)c1)c1ccc(CNC(=O)c2ccc(O)c(-c3ccc(Cl)c(Cl)c3)c2)cc1 | 843
CCC(C)CN1CCN(c2ccc(NC(=O)c3cccs3)cc2)CC1C (stereo not given) | 655
O=C(OCC1CCN(Cc2ccccc2)C1)c1ccc(Cl)cc1 (stereo not given) | 680
CN(C)CCCOc1cccc(CCNCc2cccc(Oc3ccc(Cl)cc3)c2)c1 | 1010

Compound | XC50 [nM]
CCCCOc1cc2ncc(C(=O)OCC)c(O)c2cc1OCCCC | 201
Cc1nc(NCc2ccccc2)cc(Nc2cc(NCc3ccccc3)nc(C)n2)n1 | 971
Cc1cccc2nc(-c3ccc(-c4ccc(CNCc5ccc(CN)cc5)cc4)s3)[nH]c12 | 442
COc1ccc(-c2ccc(NC(=O)c3cccc(Cl)c3)c(F)c2)cc1CN1CCCN(C)CC1 | 679
CCNC(=O)Nc1cccc(-c2cccc(-c3nc4cc(C(F)(F)F)ccc4[nH]3)c2)c1 | 678
CCN1CCN(c2cc(C)c3cc(NC(=O)c4cccc(Cl)c4)ccc3n2)CC1 | 775
COc1cccc(CN2CCCC(OC(c3ccccc3)c3ccccc3)C2)c1O (stereo not given) | 930
CC(=O)c1ccc(S(=O)(=O)N2CCC(C(=O)Nc3ccccc3N3CCCC3)CC2)cc1 | 833
COc1ccc2nccc(N3CCCN(CCNCc4ccc5c(n4)NC(=O)CS5)CC3)c2n1 | 155
COc1cc(CNCCC(C)C)ccc1OCc1cccc(COc2ccc(CNCCC(C)C)cc2OC)c1 | 492
O=C(NCC1CC1)C1CCN(C(c2ccccc2)c2ccc(Cl)c(Cl)c2)CC1 (stereo not given) | 369
CCC(C)NC(=O)Nc1ccc(-c2cccc(-c3nc4cc(C(F)(F)F)ccc4[nH]3)c2)cc1 (stereo not given) | 624
CC(C)Cc1ccc(N2CCN(CCCCNC(=O)c3ccc(NC(=O)c4ccc(Cl)c(Cl)c4)cc3)CC2)cc1 | 1200
O=C(Nc1ccc(-c2csc(-c3nc4ccccc4[nH]3)c2)cc1)Nc1ccc(Cl)c(Cl)c1 | 402
O=C(Nc1cc(Cl)cc(Cl)c1)c1cc(Cl)c(=O)n(Cc2cccc(Cl)c2)c1 | 752
Cc1cccc2nc(-c3ccc(-c4ccc(CN5CCCC(N)C5)cc4)s3)[nH]c12 (stereo not given) | 382
C=CCOC(=O)N1CCC(CNCc2cccc(-c3ccc(-c4nc5cccc(C)c5[nH]4)s3)c2)C1 (stereo not given) | 248
CC(C)n1nc(C(=O)N2CCN(c3ccccc3)CC2)c2ccccc2c1=O | 979
Cc1ccccc1C1CCN(C2CCC(NC(=O)/C=C/c3cccc(C(F)(F)F)c3)CC2)CC1 (stereo not given) | 1520
O=C(NCCCCCN1CCC(c2c[nH]c3ccccc23)CC1)Nc1ccc(I)cc1 | 991
COc1cc(NCCCNCc2cn(S(=O)(=O)c3ccccc3)c3ccccc23)nc2ccccc12 | 386
Cc1nc(C)c(-c2cccc(Oc3ccc(Cl)cc3)c2)c(O)c1Br | 73.6
COc1ccc(CCOc2c(C)nc(N)nc2N)cc1OC | 69.6
COc1ccccc1N1CCN(CCCCNC(=O)c2ccc(NC(=O)c3cc(Cl)cc(Cl)c3)cc2)CC1 | 458

Compound | XC50 [nM]
O=C(/C=C/c1ccc(Cl)cc1Cl)N1CCC(CCN2CCC(c3c[nH]c4ccccc34)CC2)CC1 | 796
c1ccc(CSC2=NNC(c3ccccn3)S2)cc1 (stereo not given) | 1480
COc1ccc2cc(-c3nc(-c4c(Cl)cccc4Cl)[nH]c3-c3ccnc(NCCC4CCCN4C)c3)ccc2c1 (stereo not given) | 1030
COc1cc(N(Cc2ccc(F)cc2)C(=O)c2ccc(-c3ccccc3)cc2)ccc1OCCN1CCCC1 | 830
COc1cccc(OC)c1C(=O)Nc1cccc(-c2nn3ccccc3c2-c2ccnc(Nc3cccc(F)c3)n2)c1 | 749
O=C(c1ccc(F)cc1)N1CCOC(CCN2CCC(c3ccccc3)CC2)(c2ccc(Cl)c(Cl)c2)C1 (stereo not given) | 749
O=C(CCc1c[nH]cn1)Nc1cccc(-c2ccc(-c3nc4cc(F)ccc4[nH]3)s2)c1 | 557
Cc1cc(Nc2cccc(C(F)(F)F)c2)nc(NCc2ccccc2)n1 | 148
CCN(CC)CCCC(C)N=c1cc(C=Cc2ccc([N+](=O)[O-])cc2)[nH]c2ccc(OC)cc12 (stereo not given) | 574
CCCCCCCCn1c2c(c(=N)c3c1CCC3)CCC2 | 222
O=C(CNC1CCCCC1)c1ccc(O)c(O)c1 | 660
CC(C)NC(=N)NN=Cc1ccc(Cl)c(Cl)c1 | 534
CCCCn1c(Sc2ccc(C#N)c([N+](=O)[O-])c2)nnc1-c1cc(OC)cc(OC)c1 | 824
Nc1nc(N)c2c(ccc3c2ccn3C2C=CCCC2)n1 (stereo not given) | 132
O=C(NC1CCN(Cc2ccc3c(c2)OCCO3)CC1)c1ccc(-c2cccc(C(F)(F)F)c2)s1 | 1830
Fc1ccc2[nH]c(-c3cccc(-c4ccc(CN5CCN(c6cnccn6)CC5)cc4)c3)nc2c1 | 893
O=C(NC1CC1)c1cnc(N2CCCC(c3ccccc3)C2)c(Cl)c1 (stereo not given) | 797
COc1ccc(C2CC(c3ccccc3)=NN2C(=O)c2ccc(Br)o2)cc1 (stereo not given) | 323
CN(C)C(=O)c1cc(CNCc2ccccc2)ccc1-c1cccc(CNCc2ccc(-c3ccccc3)cc2)c1 | 1050
c1cncc(CCNCc2ccc(-c3ccc(CNC4Cc5ccccc5C4)cc3)cc2)c1 | 1090
CC(O)c1cccc(-c2ccc(Nc3ccnc4cc(-c5nccs5)ccc34)cc2)c1 (stereo not given) | 1010
COc1cc(F)c2ncc(Cl)c(CCN3CCC(NCc4ccc5c(n4)NC(=O)CO5)CC3)c2c1 | 504

— ChEMBL document CHEMBL1157539, “Thousands of chemical starting points for antimalarial lead identification” (Nature, 2010)
